Experimental data: US20060134221A1, “Methods for producing block copolymer/amphiphilic particles” (priority 2004, published 2006)

How the values were obtained:
[1] = Particle size measurements using photon correlation spectroscopy (mean Z average diameter, polydispersity); type: physicochemical; settings: for interaction with poloxamer: individual benzalkonium chloride analogs, thermal cycling (Example 1)
Description: The following examples employ a Malvern 3000 HS Zetasizer to measure particle size. Particles with diameters that range from 1 to 5000 nm, can be measured using the method of photon correlation spectroscopy (PCS). Particles in this size range are in constant random thermal (or Brownian) motion. This motion causes the intensity of light scattered from the particles to form a moving speckle pattern which, with the use of optics and a photomultiplier, can be detected as a change in intensity with time. Large particles move more slowly than small particles, therefore the rate of fluctuation of light scattered from large particles is slower. PCS uses the rate of change of these light fluctuations to determine the size distribution of the particles scattering light. Data is plotted as the auto-correlation function (counts per correlator against delay time). Analysis of this function obtained over time, with a sufficient number of data points, enables the translational diffusion coefficient of the particles undergoing Brownian motion to be calculated. From this coefficient, together with the temperature and viscosity of the suspending liquid, the particle size can be calculated. For aqueous dispersions, the default set-up of the Malvern 3000 HS Zetasizer calculates the viscosity from the temperature. The best single measurement to describe the size of a poloxamer formulation is the mean Z average or the hydrodynamic diameter, which is calculated using cumulants analysis. The polydispersity describes the width of the distribution.
The size of the particles produced was determined using photon correlation spectroscopy. The particle size as reported herein refers to the mean Z average diameter also known as the hydrodynamic diameter. The surface charge of the particles was also determined using micro-electrophoresis.

[2] = Dissolution characteristics of BAK homologs in PBS; type: physicochemical
Description: Stock solutions of benzyldimethyldodecylammonium chloride (BAK C12, Fluka Chemical Corp., Milwaukee, Wis., cat #53233), benzyldimethyltetradecylammonium chloride (BAK C14, TCI America, Portland, Oreg., cat #A0208), benzyldimethylhexadecyllammonium chloride (BAK C16, TCI America, Portland, Oreg., cat #B0237) and benzyldimethyloctadecylammonium chloride (BAK C18, TCI America, Portland, Oreg., cat #B1297) were made in PBS.

[3] = Example 9, 269 mg in 70 ml sterile water for injection, homogenized/extruded 10,000 psi, 15° C., 5 passes

Row | Compound | Particle size [1, 3] | polydispersity [1, 3] | interaction with poloxamer [1] | formation of cell delivery particles with CRL-1005 and DNA ([1]; thermal cycling method) | Dissolution Temperature ([2]; Concentration in PBS 5 mM) | Dissolution Temperature ([2]; Concentration in PBS 2 mM) | formation of small, uniform cell delivery particles with CRL-1005 ([1]; Example 13, thermal cycling method) | Dissolution Temperature ([2]; Concentration in PBS 1 mM)
1 | CCCCCCCCCCCCCCOCC(C[N+](C)(C)CCO)OCCCCCCCCCCCCCC.[Br-] (racemic) [DMRIE, (±)-N-(2-hydroxyethyl)-N,N-dimethyl-2,3-bis(tetradecyloxy)-1-propanaminium bromide] | 65 nm | 0.21 |  |  |  |  |  | 
2 | CCCCCCCCCCCC[N+](C)(C)Cc1ccccc1.[Cl-] [BAK C12, benzyldimethyldodecylammonium chloride] |  |  | does not interact with poloxamer | do not form cell delivery particles |  |  |  | 
3 | CCCCCCCCCCCCCC[N+](C)(C)Cc1ccccc1.[Cl-] [BAK C14, benzyldimethyltetradecylammonium chloride] |  |  | interact with poloxamer to produce submicron particles with a positive surface charge |  | 25 °C |  |  | 
4 | CCCCCCCCCCCCCCCC[N+](C)(C)Cc1ccccc1.[Cl-] [BAK C16, benzyldimethylhexadecyllammonium chloride] |  |  | interact with poloxamer to produce submicron particles with a positive surface charge |  | 45 °C | 45 °C |  | 
5 | CCCCCCCCCCCCCCCCCC[N+](C)(C)Cc1ccccc1.[Cl-] [BAK C18, benzyldimethyloctadecylammonium chloride] |  |  | does interact with poloxamer to produce large micron sized particles with a positive surface charge | do not form cell delivery particles | 45 °C | 45 °C | does not form small nor uniform cell delivery particles | 45 °C
